Assay results as given in ChEMBL document CHEMBL1201862, “PubChem BioAssay data set” (2004).
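Each compound was tested at five concentrations against cells in 96-well plates for 48 hours. At the GI50, growth is halved.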 Active and inactive are the calls of the source. Rule as the data show it: active = GI50 up to about 1.1 µM and inactive = higher.

Key:
Assay in all cases: DTP human tumour cell line panel, 48 h
[1] = test system: 786-0
[2] = test system: A498
[3] = test system: A549
[4] = test system: ACHN
[5] = test system: BT-549
[6] = test system: CAKI-1
[7] = test system: CCRF-CEM
[8] = test system: COLO 205
[9] = test system: EKVX
[10] = test system: HCC 2998
[11] = test system: HCT-116
[12] = test system: HCT-15
[13] = test system: HL-60
[14] = test system: HOP-62
[15] = test system: HT-29
[16] = test system: Hs-578T
[17] = test system: IGROV-1
[18] = test system: K562
[19] = test system: LOX IMVI
[20] = test system: M14
[21] = test system: MCF7
[22] = test system: MDA-MB-435
[23] = test system: MDA-N
[24] = test system: MOLT-4
[25] = test system: Malme-3M
[26] = test system: NCI-H23
[27] = test system: NCI-H460
[28] = test system: NCI/ADR-RES
[29] = test system: OVCAR-3
[30] = test system: OVCAR-4
[31] = test system: OVCAR-5
[32] = test system: OVCAR-8
[33] = test system: PC-3
[34] = test system: RPMI-8226
[35] = test system: SF-268
[36] = test system: SF-295
[37] = test system: SF-539
[38] = test system: SK-MEL-28
[39] = test system: SK-MEL-2
[40] = test system: SK-MEL-5
[41] = test system: SK-OV-3
[42] = test system: SN12C
[43] = test system: SNB-19
[44] = test system: SW-620
[45] = test system: TK-10
[46] = test system: UACC-257
[47] = test system: UACC-62
[48] = test system: UO-31

SMILES: O=C(Cn1c2c(c3ccccc31)CCCC2)NC1CCCCC1
- GI50 [1]: 69.8 µM (inactive)
- GI50 [2]: > 100 µM (inactive)
- GI50 [3]: > 100 µM (inactive)
- GI50 [4]: > 100 µM (inactive)
- GI50 [5]: > 100 µM (inactive)
- GI50 [6]: > 100 µM (inactive)
- GI50 [7]: > 100 µM (inactive)
- GI50 [8]: > 100 µM (inactive)
- GI50 [9]: > 100 µM (inactive)
- GI50 [10]: > 100 µM (inactive)
- GI50 [11]: > 100 µM (inactive)
- GI50 [12]: > 100 µM
- GI50 [13]: 0.405 µM (active)
- GI50 [14]: 81.8 µM (inactive)
- GI50 [15]: > 100 µM (inactive)
- GI50 [16]: 55 µM (inactive)
- GI50 [17]: 22.5 µM (inactive)
- GI50 [18]: > 100 µM (inactive)
- GI50 [19]: 68.5 µM (inactive)
- GI50 [20]: > 100 µM (inactive)
- GI50 [21]: > 100 µM (inactive)
- GI50 [22]: > 100 µM (inactive)
- GI50 [23]: > 100 µM (inactive)
- GI50 [24]: > 10 µM (inactive)
- GI50 [25]: > 100 µM (inactive)
- GI50 [26]: > 100 µM (inactive)
- GI50 [27]: > 100 µM (inactive)
- GI50 [28]: > 100 µM (inactive)
- GI50 [29]: 96.4 µM (inactive)
- GI50 [30]: 94.2 µM (inactive)
- GI50 [31]: 46.8 µM (inactive)
- GI50 [32]: > 100 µM (inactive)
- GI50 [33]: 88.7 µM (inactive)
- GI50 [34]: > 100 µM (inactive)
- GI50 [35]: 77.3 µM (inactive)
- GI50 [36]: 51.3 µM (inactive)
- GI50 [37]: > 100 µM (inactive)
- GI50 [38]: 63 µM (inactive)
- GI50 [39]: > 100 µM (inactive)
- GI50 [40]: > 100 µM (inactive)
- GI50 [41]: 45.9 µM (inactive)
- GI50 [42]: > 100 µM (inactive)
- GI50 [43]: > 100 µM (inactive)
- GI50 [44]: > 100 µM (inactive)
- GI50 [45]: > 100 µM (inactive)
- GI50 [46]: > 100 µM (inactive)
- GI50 [47]: 56.4 µM (inactive)
- GI50 [48]: > 100 µM (inactive)
